In one data set the test system is porcine stomach mucin. As to the kind of experiment: Mucin binding dialysis assay. The method, then: Mucin binding was evaluated using a dialysis assay developed previously (Huang et al., 2015). Briefly, 100 μL of capreomycin, CPZEN-45, or a 50:50 combination of both at 4 mg/mL per drug was suspended in 900 μL Dulbecco's PBS without calcium or magnesium (Lonza, Cat. #17-512F) either with or without 12.5% (wt./vol) porcine stomach mucin (Sigma-Aldrich, Cat. #M1778, type III, bound sialic acid 0.5% to 1.5%, partially purified powder). The resulting mixtures were placed in Spectra/Por dialysis bags (6- to 8-kDa molecular mass cutoff, 32-mm flat width, 20.4-mm diameter; 3.3-ml/cm volume; Spectrum Laboratories, Cat. #132655, Rancho Dominguez, Calif.), with the tube ends closed using standard dialysis bag closures. […] Dialysate samples (200 μl) were collected at 10, 60, 120, and 240 minutes and the antibiotic concentration within each dialysate was determined by HPLC UV/vis analysis. The percentage of each antibiotic detected in the dialysate was calculated relative to the theoretical total concentration based on 400 μg of antibiotic in an 11-ml total volume. […]
Colistin sulfate content was measured via mass spectrometry on an Agilent 6460 Triple Quadrupole LC/MS System with a Waters Cortecs UPLC C18 1.6 2.1×50 mm column.

Data set [1] is described as follows: Accelerated stability study: assay and related substances by HPLC. The data set is classed as physicochemical. To be noted: for CPZEN-45 assay by HPLC / Related Substances by HPLC: CPZEN-45 API. The method, then:
Drugs were stored either individually as a free-flowing powder, as a 1:1 spray-dried formulation of capreomycin and CPZEN-45 as a free-flowing powder, or as a 1:1 spray-dried formulation in #3 hydroxypropylmethylcellulose (HPMC) capsules. All samples were deposited into 5 mL screw-top glass vials. Samples were collected at the beginning of the study, after 1 week, 1 month, 3 months, and 6 months. HPLC-based methods for detecting CPZEN-45, capreomycin, and degradation products are described in the “Methods” section below.
Capreomycin and CPZEN-45 content for forced degradation, stability, and impactor studies was measured by RP-HPLC with a Shimadzu system consisting of an SCL-10AVP system controller, two LC-10ADVP pumps, a DGU-14A degasser, SIL-10A autoinjector, and SPD-M10AVP diode array detector. […] All peaks were detected at wavelength 265 nm. Linearity for total capreomycin was obtained between 1 and 75 μg/mL (R^2=0.996) with a limit of detection (LOD) of 0.74 μg/mL. Linearity for CPZEN-45 was obtained between 0.5 and 100 μg/mL (R^2=0.996) with an LOD of 1.03 μg/mL.

Data set [2] is classed as physicochemical. As to conditions: base treatment (0.1 M NaOH, pH=12.8, 72 hours). The method, then:
Prior to evaluating the long-term stability of a spray-dried combination powder, multiple forced degradations on capreomycin and CPZEN-45 were performed before determining the chromatographic profile of treated materials and monitoring absorbance at 265 nm using a Shimadzu RP-HPLC unit. By this method, it was confirmed that it was possible to detect drug degradation as well as any degradants generated.
Forced degradations were performed by subjecting aqueous solutions of non-spray-dried capreomycin or CPZEN-45 at 0.1 mg/mL to multiple conditions (all at 23° C. unless noted otherwise): control (no treatment, 72 hours), acid (0.1 M HCl, pH=1.2, 72 hours), base (0.1 M NaOH, pH=12.8, 72 hours), oxidizer (3% w/v 2Na2CO3 3H2O2 (sodium percarbonate), 72 hours), 60° C. for 72 hours, or 90° C. for 30 minutes.
Capreomycin and CPZEN-45 content for forced degradation, stability, and impactor studies was measured by RP-HPLC with a Shimadzu system consisting of an SCL-10AVP system controller, two LC-10ADVP pumps, a DGU-14A degasser, SIL-10A autoinjector, and SPD-M10AVP diode array detector. […] All peaks were detected at wavelength 265 nm. Linearity for total capreomycin was obtained between 1 and 75 μg/mL (R^2=0.996) with a limit of detection (LOD) of 0.74 μg/mL. Linearity for CPZEN-45 was obtained between 0.5 and 100 μg/mL (R^2=0.996) with an LOD of 1.03 μg/mL. […]

The conditions of data set [3]: in vivo; cited from earlier work.
The mark [4] stands for this setting: 40° C./75% RH table, T = 3 MON, footnote: due to melting values after month 3 are 30° C./60% RH.
The mark [5] stands for this setting: 40° C./75% RH table, T = 6 MON, footnote: due to melting values after month 3 are 30° C./60% RH.

Values joined by “and” are separate entries in the source; they are usually repeats but may differ in a detail not shown here. Equal values may be shown once.

With colistin sulfate, the “Percentage of efflux in the presence of mucin relative to samples without mucin” value in the data set on porcine stomach mucin (after 4 hours, drug alone, 12.5% porcine stomach mucin, 37° C.) is on record as 20%.

With `CCCCc1ccc(NC(=O)C2=CCN(C)[C@@H]([C@H](O[C@@H]3O[C@H](CN)[C@@H](O)[C@H]3O)[C@H]3O[C@@H](n4ccc(=O)[nH]c4=O)[C@H](O)[C@@H]3O)C(=O)N2C)cc1` [CPZEN-45], the “Stability in accelerated stability studies” value in data set [1] is “highly stable”. Also, the “CPZEN-45 assay by HPLC” value in data set [1] (25° C./60% RH, T = 0, replicates 1-3 and average ± RSD) is 98.1% and 98.0% and 95.3%; in data set [1] (25° C./60% RH, T = 1 MON, replicates 1-3 and average ± RSD), 100.7% and 98.0% and 99.5%; in data set [1] (25° C./60% RH, T = 1 WEEK, replicates 1-3 and average ± RSD) it was 96.2% and 95.8% and 97.1%; in data set [1] (25° C./60% RH, T = 3 MON, replicates 1-3 and average ± RSD), 98.0% and 103.2%; in data set [1] (25° C./60% RH, T = 6 MON, replicates 1-3 and average ± RSD), 97.2% and 98.4% and 97.1%; in data set [1] (setting [4]), 97.2% and 101.0% and 102.8%. Besides, the “CPZEN-45 assay by HPLC” value in data set [1] (setting [5]) was 96.5% and 98.0% and 97.5%; in data set [1] (40° C./75% RH, T = 0, replicates 1-3 and average ± RSD) it was 98.1% and 98.0% and 95.3%; in data set [1] (40° C./75% RH, T = 1 MON, replicates 1-3 and average ± RSD), 100.3% and 96.0% and 94.4%; in data set [1] (40° C./75% RH, T = 1 WEEK, replicates 1-3 and average ± RSD), 96.1% and 96.4% and 95.9%. The “Related Substances by HPLC” value in data set [1] (25° C./60% RH, T = 1 MON, replicates 1-3 and average) was 0.7%; in data set [1] (25° C./60% RH, T = 1 WEEK, replicates 1-3 and average), 0.4%; in data set [1] (25° C./60% RH, T = 3 MON, replicates 1-3 and average) it was 0.4% and 0.6%; in data set [1] (25° C./60% RH, T = 6 MON, replicates 1-3 and average) it was 0.8%; in data set [1] (setting [4]) it was 0.6% and 0.8%; in data set [1] (setting [5]), 1.4% and 1.2%. Besides, the “Related Substances by HPLC” value is 2.5% and 1.8% and 2.0% in data set [1] (40° C./75% RH, T = 1 MON, replicates 1-3 and average); 0.5% in data set [1] (40° C./75% RH, T = 1 WEEK, replicates 1-3 and average). In data set [2], the “Loss of the original mass of intact compound” value is on record as “approximately 88%”. Further, in data set [3], the Oral availability entry was “not orally available due to poor absorption from the gastrointestinal tract”. Moreover, in the data set on porcine stomach mucin (not told), the “Percentage of efflux in the presence of mucin relative to samples without mucin” value is 48%.

These data come from US20200246268A1, “CPZEN COMPOSITIONS AND USES” (PAI Life Sciences Inc., priority 2017, published 2020).
